# Test results as given in US20260022246A1, “COLORING AGENT COMPOSITION, FILM, OPTICAL FILTER, AND NEAR INFRARED ABSORBING COMPOUND” (FUJIFILM Corporation, priority 2023, published 2026).
# Legend:
# Assay type in all cases: physicochemical
# [1] = Evaluation of solubility in methyl ethyl ketone (MEK); settings: for Solubility in solvent: stirred at room temperature for 30 minutes
# Procedure: For each of Exemplary Compounds shown in Tables 1 and 2, a predetermined amount of the compound was added to a solvent of methyl ethyl ketone (MEK), and solubility was evaluated according to the following standard by stirring the mixture at room temperature for 30 minutes.
# • A: 1 g or more of the compound was stably dissolved in 300 g of MEK. • B: 1 g was not dissolved in 300 g of MEK. • X: decomposition was observed by measuring the absorption spectrum after the dissolution.
# [2] = Evaluation of heat stability of polystyrene resin film (hot plate 180° C., 5 minutes); set-up: key to Heat stability of resin composition: absorbance reduction rate of Amax was less than 5%; B: absorbance reduction rate of Amax was 5% or more and less than 10%; C: absorbance reduction rate of Amax was 10% or more and less than 50%; D: absorbance reduction rate of Amax was 50% or more; X: solubility was insufficient, so that the film cannot be produced, which was not evaluable; settings: polystyrene resin film on glass, hot plate 180° C. for 5 minutes, absorbance reduction rate at λmax
# Procedure: 30 mg of each of Exemplary Compounds and the comparative compounds described in the tables was dissolved in 8.9 g of methyl ethyl ketone and 1.1 g of a polystyrene resin (manufactured by Sigma-Aldrich Co. LLC) to prepare a resin composition.
# The obtained resin composition was spin-coated on a glass substrate to form a coating film, and the obtained coating film was dried at 60° C. for 2 minutes to produce a resin film. […]
# • A: absorbance reduction rate of Amax was less than 5%. • B: absorbance reduction rate of Amax was 5% or more and less than 10%. • C: absorbance reduction rate of Amax was 10% or more and less than 50%. • D: absorbance reduction rate of Amax was 50% or more. • X: solubility was insufficient, so that the film cannot be produced, which was not evaluable.
# [3] = Evaluation of absorption spectrum (maximal absorption wavelength in chloroform solution); settings: for λmax (maximal absorption wavelength): chloroform solution, 3.0×10^−5 mol/L, 1 mm quartz cell; for Near infrared absorbing property: grade of λmax in chloroform solution
# Procedure: The specific compound is diluted with chloroform to a concentration of […], and an absorbance of the obtained sample solution is measured with a spectrophotometer (UV-3600 Plus, manufactured by Shimadzu Corporation) using a 1 mm quartz cell. A maximal absorption wavelength (Amax) is measured from an absorption spectrum of the sample solution.
# For each of Exemplary Compounds shown in Tables 1 and 2, a sample solution was prepared by diluting the compound with chloroform to a concentration of 3.0×10^−5 mol/L, and near infrared absorbability was evaluated.
# For each sample solution, an absorbance was measured in a 1 mm quartz cell using a spectrophotometer (UV-3600 Plus, manufactured by Shimadzu Corporation).
# A maximal absorption wavelength (Amax) was measured from the absorption spectrum of each sample solution. The results are shown in Tables 1 and 2, and the wavelength of Amax was evaluated according to the following standard.
# • A: Amax was 1,150 nm or more. • B: Amax was less than 1,150 nm.
Compound,Solubility in solvent [1],Heat stability of resin composition [2],λmax (maximal absorption wavelength) [3] [nm],Near infrared absorbing property [3],solubility in a solvent (in words) [1]
COc1ccc(N(c2ccc(OC)cc2)c2ccc([N+](=C3C=CC(=[N+](c4ccc(N(c5ccc(OC)cc5)c5ccc(OC)cc5)cc4)c4ccc(N(c5ccc(OC)cc5)c5ccc(OC)cc5)cc4)C=C3)c3ccc(N(c4ccc(OC)cc4)c4ccc(OC)cc4)cc3)cc2)cc1.[O-][Cl+3]([O-])([O-])[O-].[O-][Cl+3]([O-])([O-])[O-] [A-6],A (1 g or more of the compound was stably dissolved in 300 g of MEK),A (absorbance reduction rate of Amax was less than 5%),1248,"A (Amax was 1,150 nm or more)",
Cc1ccc(N(c2ccc(C)cc2)c2ccc([N+](=C3C=CC(=[N+](c4ccc(N(c5ccc(C)cc5)c5ccc(C)cc5)cc4)c4ccc(N(c5ccc(C)cc5)c5ccc(C)cc5)cc4)C=C3)c3ccc(N(c4ccc(C)cc4)c4ccc(C)cc4)cc3)cc2)cc1 [A-1],A (1 g or more of the compound was stably dissolved in 300 g of MEK),A (absorbance reduction rate of Amax was less than 5%),,"A (Amax was 1,150 nm or more)",
COc1cc(C)c(N(c2ccc([N+](=C3C=CC(=[N+](c4ccc(N(c5c(C)cc(OC)cc5C)c5c(C)cc(OC)cc5C)cc4)c4ccc(N(c5c(C)cc(OC)cc5C)c5c(C)cc(OC)cc5C)cc4)C=C3)c3ccc(N(c4c(C)cc(OC)cc4C)c4c(C)cc(OC)cc4C)cc3)cc2)c2c(C)cc(OC)cc2C)c(C)c1.[O-][Cl+3]([O-])([O-])[O-].[O-][Cl+3]([O-])([O-])[O-] [A-22],A (1 g or more of the compound was stably dissolved in 300 g of MEK),A (absorbance reduction rate of Amax was less than 5%),1308,"A (Amax was 1,150 nm or more)",
Cc1ccc(N(c2ccc(C)cc2)c2ccc([N+](=C3C=CC(=[N+](c4ccc(N(c5ccc(C)cc5)c5ccc(C)cc5)cc4)c4ccc(N(c5ccc(C)cc5)c5ccc(C)cc5)cc4)C=C3)c3ccc(N(c4ccc(C)cc4)c4ccc(C)cc4)cc3)cc2)cc1 [A-35],A (1 g or more of the compound was stably dissolved in 300 g of MEK),A (absorbance reduction rate of Amax was less than 5%),,"A (Amax was 1,150 nm or more)",
Cc1ccc(N(c2ccc(C)cc2)c2ccc([N+](=C3C=CC(=[N+](c4ccc(N(c5ccc(C)cc5)c5ccc(C)cc5)cc4)c4ccc(N(c5ccc(C)cc5)c5ccc(C)cc5)cc4)C=C3)c3ccc(N(c4ccc(C)cc4)c4ccc(C)cc4)cc3)cc2)cc1.F[P-](F)(F)(F)(F)F.F[P-](F)(F)(F)(F)F [A-30],A (1 g or more of the compound was stably dissolved in 300 g of MEK),A (absorbance reduction rate of Amax was less than 5%),1209,"A (Amax was 1,150 nm or more)",
Cc1ccc(N(c2ccc(C)cc2)c2ccc([N+](=C3C=CC(=[N+](c4ccc(N(c5ccc(C)cc5)c5ccc(C)cc5)cc4)c4ccc(N(c5ccc(C)cc5)c5ccc(C)cc5)cc4)C=C3)c3ccc(N(c4ccc(C)cc4)c4ccc(C)cc4)cc3)cc2)cc1 [A-28],A (1 g or more of the compound was stably dissolved in 300 g of MEK),A (absorbance reduction rate of Amax was less than 5%),1209,"A (Amax was 1,150 nm or more)",
COC(=O)c1cccc(N(c2ccc([N+](=C3C=CC(=[N+](c4ccc(N(c5cccc(C(=O)OC)c5)c5cccc(C(=O)OC)c5)cc4)c4ccc(N(c5cccc(C(=O)OC)c5)c5cccc(C(=O)OC)c5)cc4)C=C3)c3ccc(N(c4cccc(C(=O)OC)c4)c4cccc(C(=O)OC)c4)cc3)cc2)c2cccc(C(=O)OC)c2)c1.[O-][Cl+3]([O-])([O-])[O-].[O-][Cl+3]([O-])([O-])[O-] [A-26],A (1 g or more of the compound was stably dissolved in 300 g of MEK),A (absorbance reduction rate of Amax was less than 5%),1232,"A (Amax was 1,150 nm or more)",
Cc1ccc(N(c2ccc(C)cc2)c2ccc([N+](=C3C=CC(=[N+](c4ccc(N(c5ccc(C)cc5)c5ccc(C)cc5)cc4)c4ccc(N(c5ccc(C)cc5)c5ccc(C)cc5)cc4)C=C3)c3ccc(N(c4ccc(C)cc4)c4ccc(C)cc4)cc3)cc2)cc1.F[B-](F)(F)F.F[B-](F)(F)F [A-29],A (1 g or more of the compound was stably dissolved in 300 g of MEK),A (absorbance reduction rate of Amax was less than 5%),1209,"A (Amax was 1,150 nm or more)",
FC(F)(F)c1ccc(N(c2ccc([N+](=C3C=CC(=[N+](c4ccc(N(c5ccc(C(F)(F)F)cc5)c5ccc(C(F)(F)F)cc5)cc4)c4ccc(N(c5ccc(C(F)(F)F)cc5)c5ccc(C(F)(F)F)cc5)cc4)C=C3)c3ccc(N(c4ccc(C(F)(F)F)cc4)c4ccc(C(F)(F)F)cc4)cc3)cc2)c2ccc(C(F)(F)F)cc2)cc1.[O-][Cl+3]([O-])([O-])[O-].[O-][Cl+3]([O-])([O-])[O-] [A-7],A (1 g or more of the compound was stably dissolved in 300 g of MEK),A (absorbance reduction rate of Amax was less than 5%),1162,"A (Amax was 1,150 nm or more)",
"C1=CC(=[N+](c2ccc(N(c3ccccc3)c3ccccc3)cc2)c2ccc(N(c3ccccc3)c3ccccc3)cc2)C=CC1=[N+](c1ccc(N(c2ccccc2)c2ccccc2)cc1)c1ccc(N(c2ccccc2)c2ccccc2)cc1 [Comparative compound 1, reference compound]",B (1 g was not dissolved in 300 g of MEK),X,1230,"A (Amax was 1,150 nm or more)",inferior
